Results published in paper PMC6820371, “Terbium-161 for PSMA-targeted radionuclide therapy of prostate cancer” (European Journal of Nuclear Medicine and Molecular Imaging, 2019).
Read-outs that look alike come from different tables or passages of the source.

How the values were obtained:
[1] = system: PC-3 PIP/flu tumor-bearing mice; settings: for Biodistribution: Blood / Biodistribution: Bone / Biodistribution: Heart / Biodistribution: Intestines / Biodistribution: Kidneys / Biodistribution: Liver / Biodistribution: Lung / Biodistribution: Muscle / Biodistribution: PC-3 PIP tumor / Biodistribution: PC-3 flu tumor / Biodistribution: Salivary glands / Biodistribution: Spleen / Biodistribution: Stomach: 5.0 MBq, 1 nmol i.v.; for Tumor-to-blood / Tumor-to-kidney / Tumor-to-liver: PC-3 PIP tumor
Experimental: Biodistribution studies were performed 12–14 days after tumor cell inoculation when the tumor xenografts reached an average tumor volume of about ~50–200 mm^3 (Supplementary material). PSMA-617 was labeled with ^161Tb at a specific activity of 5.0 MBq/nmol and diluted in saline. […] The mice were sacrificed at 1 h, 4 h, 24 h, 48 h, or 96 h post injection (p.i.) and selected tissues and organs were collected, weighed, and measured using a γ-counter (Perkin Elmer, Wallac Wizard 1480). Groups of 3–5 mice were sacrificed at each time point. The results were decay-corrected and listed as percentage of the injected activity per gram of tissue mass (% IA/g). Data are presented as the average ± standard deviation (SD).
A p-value of < 0.05 was considered statistically significant.
Biodistribution studies were performed 12–14 days after tumor cell inoculation. The experimental procedure of the biodistribution studies is described in the main manuscript.

[2] = system: PC-3 PIP tumor cells; test: Cell survival assay (clonogenic assay); format: cell-based, human; settings: 0.05–5.0 MBq/mL, p < 0.05

O=C([O-])CN1CCN(CC(=O)[O-])CCN(CC(=O)NCC2CCC(C(=O)NC(Cc3ccc4ccccc4c3)C(=O)NCCCCC(NC(=O)NC(CCC(=O)O)C(=O)O)C(=O)O)CC2)CCN(CC(=O)[O-])CC1.[161Tb+3] (stereo not drawn) [^161Tb-PSMA-617]
Biodistribution: Blood ([1]; 1 h p.i.): 0.49 ± 0.16 %IA/g
Biodistribution: Bone ([1]; 1 h p.i.): 0.21 ± 0.07 %IA/g
Biodistribution: Heart ([1]; 1 h p.i.): 0.21 ± 0.05 %IA/g
Biodistribution: Intestines ([1]; 1 h p.i.): 0.26 ± 0.05 %IA/g
Biodistribution: Kidneys ([1]; 1 h p.i.): 9.6 ± 1.3 %IA/g
Biodistribution: Liver ([1]; 1 h p.i.): 0.28 ± 0.05 %IA/g
Biodistribution: Lung ([1]; 1 h p.i.): 0.66 ± 0.28 %IA/g
Biodistribution: Muscle ([1]; 1 h p.i.): 0.13 ± 0.06 %IA/g
Biodistribution: PC-3 PIP tumor ([1]; 1 h p.i.): 44 ± 5.3 %IA/g
Biodistribution: PC-3 flu tumor ([1]; 1 h p.i.): 0.39 ± 0.18 %IA/g
Biodistribution: Salivary glands ([1]; 1 h p.i.): 0.28 ± 0.13 %IA/g
Biodistribution: Spleen ([1]; 1 h p.i.): 0.54 ± 0.08 %IA/g
Biodistribution: Stomach ([1]; 1 h p.i.): 0.22 ± 0.05 %IA/g
Tumor-to-blood ([1]; 1 h p.i.): 99 ± 27
Tumor-to-kidney ([1]; 1 h p.i.): 4.7 ± 0.5
Tumor-to-liver ([1]; 1 h p.i.): 163 ± 23
Biodistribution: Blood ([1]; 4 h p.i.): 0.08 ± 0.01 %IA/g
Biodistribution: Bone ([1]; 4 h p.i.): 0.09 ± 0.02 %IA/g
Biodistribution: Heart ([1]; 4 h p.i.): 0.05 ± 0.01 %IA/g
Biodistribution: Intestines ([1]; 4 h p.i.): 0.06 ± 0.01 %IA/g
Biodistribution: Kidneys ([1]; 4 h p.i.): 2.9 ± 0.14 %IA/g
Biodistribution: Liver ([1]; 4 h p.i.): 0.17 ± 0.02 %IA/g
Biodistribution: Lung ([1]; 4 h p.i.): 0.11 ± 0.01 %IA/g
Biodistribution: Muscle ([1]; 4 h p.i.): 0.03 ± 0.00 %IA/g
Biodistribution: PC-3 PIP tumor ([1]; 4 h p.i.): 49 ± 5.5 %IA/g
Biodistribution: PC-3 flu tumor ([1]; 4 h p.i.): 0.13 ± 0.02 %IA/g
Biodistribution: Salivary glands ([1]; 4 h p.i.): 0.07 ± 0.01 %IA/g
Biodistribution: Spleen ([1]; 4 h p.i.): 0.13 ± 0.01 %IA/g
Biodistribution: Stomach ([1]; 4 h p.i.): 0.08 ± 0.01 %IA/g
Tumor-to-blood ([1]; 4 h p.i.): 640 ± 132
Tumor-to-kidney ([1]; 4 h p.i.): 17 ± 1.6
Tumor-to-liver ([1]; 4 h p.i.): 302 ± 64
Biodistribution: Blood ([1]; 24 h p.i.): 0.03 ± 0.00 %IA/g
Biodistribution: Bone ([1]; 24 h p.i.): 0.09 ± 0.01 %IA/g
Biodistribution: Heart ([1]; 24 h p.i.): 0.03 ± 0.00 %IA/g
Biodistribution: Intestines ([1]; 24 h p.i.): 0.03 ± 0.00 %IA/g
Biodistribution: Kidneys ([1]; 24 h p.i.): 1.1 ± 0.09 %IA/g
Biodistribution: Liver ([1]; 24 h p.i.): 0.11 ± 0.02 %IA/g
Biodistribution: Lung ([1]; 24 h p.i.): 0.11 ± 0.09 %IA/g
Biodistribution: Muscle ([1]; 24 h p.i.): 0.02 ± 0.00 %IA/g
Biodistribution: PC-3 PIP tumor ([1]; 24 h p.i.): 43 ± 5.5 %IA/g
Biodistribution: PC-3 flu tumor ([1]; 24 h p.i.): 0.08 ± 0.01 %IA/g
Biodistribution: Salivary glands ([1]; 24 h p.i.): 0.05 ± 0.01 %IA/g
Biodistribution: Spleen ([1]; 24 h p.i.): 0.08 ± 0.01 %IA/g
Biodistribution: Stomach ([1]; 24 h p.i.): 0.04 ± 0.00 %IA/g
Tumor-to-blood ([1]; 24 h p.i.): 1668 ± 302
Tumor-to-kidney ([1]; 24 h p.i.): 43 ± 10
Tumor-to-liver ([1]; 24 h p.i.): 383 ± 65
Biodistribution: Blood ([1]; 48 h p.i.): 0.02 ± 0.00 %IA/g
Biodistribution: Bone ([1]; 48 h p.i.): 0.05 ± 0.01 %IA/g
Biodistribution: Heart ([1]; 48 h p.i.): 0.03 ± 0.00 %IA/g
Biodistribution: Intestines ([1]; 48 h p.i.): 0.02 ± 0.00 %IA/g
Biodistribution: Kidneys ([1]; 48 h p.i.): 0.58 ± 0.05 %IA/g
Biodistribution: Liver ([1]; 48 h p.i.): 0.12 ± 0.01 %IA/g
Biodistribution: Lung ([1]; 48 h p.i.): 0.04 ± 0.01 %IA/g
Biodistribution: Muscle ([1]; 48 h p.i.): 0.01 ± 0.00 %IA/g
Biodistribution: PC-3 PIP tumor ([1]; 48 h p.i.): 28 ± 4.1 %IA/g
Biodistribution: PC-3 flu tumor ([1]; 48 h p.i.): 0.06 ± 0.01 %IA/g
Biodistribution: Salivary glands ([1]; 48 h p.i.): 0.03 ± 0.00 %IA/g
Biodistribution: Spleen ([1]; 48 h p.i.): 0.07 ± 0.00 %IA/g
Biodistribution: Stomach ([1]; 48 h p.i.): 0.03 ± 0.00 %IA/g
Tumor-to-blood ([1]; 48 h p.i.): 1346 ± 166
Tumor-to-kidney ([1]; 48 h p.i.): 49 ± 7.2
Tumor-to-liver ([1]; 48 h p.i.): 229 ± 30
Biodistribution: Blood ([1]; 96 h p.i.): 0.01 ± 0.00 %IA/g
Biodistribution: Bone ([1]; 96 h p.i.): 0.06 ± 0.01 %IA/g
Biodistribution: Heart ([1]; 96 h p.i.): 0.02 ± 0.00 %IA/g
Biodistribution: Intestines ([1]; 96 h p.i.): 0.12 ± 0.12 %IA/g
Biodistribution: Kidneys ([1]; 96 h p.i.): 0.40 ± 0.04 %IA/g
Biodistribution: Liver ([1]; 96 h p.i.): 0.10 ± 0.00 %IA/g
Biodistribution: Lung ([1]; 96 h p.i.): 0.03 ± 0.00 %IA/g
Biodistribution: Muscle ([1]; 96 h p.i.): 0.01 ± 0.00 %IA/g
Biodistribution: PC-3 PIP tumor ([1]; 96 h p.i.): 22 ± 4.3 %IA/g
Biodistribution: PC-3 flu tumor ([1]; 96 h p.i.): 0.04 ± 0.01 %IA/g
Biodistribution: Salivary glands ([1]; 96 h p.i.): 0.03 ± 0.00 %IA/g
Biodistribution: Spleen ([1]; 96 h p.i.): 0.07 ± 0.01 %IA/g
Biodistribution: Stomach ([1]; 96 h p.i.): 0.66 ± 1.01 %IA/g
Tumor-to-blood ([1]; 96 h p.i.): 2053 ± 412
Tumor-to-kidney ([1]; 96 h p.i.): 56 ± 9.7
Tumor-to-liver ([1]; 96 h p.i.): 224 ± 33
Reduction of tumor-cell survival compared to ^177Lu-PSMA-617 [2]: significantly more effective
